Test results: ChEMBL document CHEMBL2331203, “Optimization of inhibitors of the tyrosine kinase EphB4. 2. Cellular potency improvement and binding mode validation by X-ray crystallography” (J Med Chem, 2013)

Key:
[1] = Apparent permeability from apical to basolateral side in human Caco2 cells after 2 hrs by LC-MS/MS analysis; type: ADME, cell-based; details: Caco-2
DU-145 = experiment: Cytotoxicity against human PRXF DU145 cells after 4 days by propidium iodide staining; details: DU-145, 96 h
[2] = target: Ephrin type-A receptor 2 (Homo sapiens) (UniProt P29317); experiment: Inhibition of human Eph-A2 using [gamma-33P]ATP assessed as residual activity at 3 uM after 30 mins by radiometric assay
Ephrin type-A receptor 2 (Homo sapiens), sequence (P29317 whole entry): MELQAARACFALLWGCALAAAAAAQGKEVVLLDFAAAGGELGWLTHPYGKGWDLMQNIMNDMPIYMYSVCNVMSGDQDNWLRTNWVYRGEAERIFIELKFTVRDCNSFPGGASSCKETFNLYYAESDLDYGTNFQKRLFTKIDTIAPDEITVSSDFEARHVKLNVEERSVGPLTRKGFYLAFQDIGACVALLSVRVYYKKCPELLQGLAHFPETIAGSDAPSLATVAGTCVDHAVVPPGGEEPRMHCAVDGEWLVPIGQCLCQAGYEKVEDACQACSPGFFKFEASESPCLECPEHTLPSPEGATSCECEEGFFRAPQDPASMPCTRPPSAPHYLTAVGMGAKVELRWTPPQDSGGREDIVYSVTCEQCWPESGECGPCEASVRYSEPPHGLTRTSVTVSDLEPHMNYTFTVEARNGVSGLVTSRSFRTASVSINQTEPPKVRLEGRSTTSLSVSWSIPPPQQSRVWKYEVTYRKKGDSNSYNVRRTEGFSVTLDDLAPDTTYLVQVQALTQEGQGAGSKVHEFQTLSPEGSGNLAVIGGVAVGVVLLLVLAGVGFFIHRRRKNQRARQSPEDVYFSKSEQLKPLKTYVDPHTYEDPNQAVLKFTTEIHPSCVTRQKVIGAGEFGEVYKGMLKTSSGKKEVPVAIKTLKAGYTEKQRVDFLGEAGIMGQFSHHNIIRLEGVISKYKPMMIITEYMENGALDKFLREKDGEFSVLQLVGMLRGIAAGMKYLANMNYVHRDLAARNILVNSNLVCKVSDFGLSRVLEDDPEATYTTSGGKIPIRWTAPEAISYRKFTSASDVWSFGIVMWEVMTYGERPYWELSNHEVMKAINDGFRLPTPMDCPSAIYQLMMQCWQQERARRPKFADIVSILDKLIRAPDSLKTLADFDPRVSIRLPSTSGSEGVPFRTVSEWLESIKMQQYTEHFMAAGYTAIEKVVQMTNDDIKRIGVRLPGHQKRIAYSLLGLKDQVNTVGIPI

Ephrin type-B receptor 4 [3] = target: T1, Ephrin type-B receptor 4 (Homo sapiens, UniProt P54760)
T1 sequence (P54760 whole entry): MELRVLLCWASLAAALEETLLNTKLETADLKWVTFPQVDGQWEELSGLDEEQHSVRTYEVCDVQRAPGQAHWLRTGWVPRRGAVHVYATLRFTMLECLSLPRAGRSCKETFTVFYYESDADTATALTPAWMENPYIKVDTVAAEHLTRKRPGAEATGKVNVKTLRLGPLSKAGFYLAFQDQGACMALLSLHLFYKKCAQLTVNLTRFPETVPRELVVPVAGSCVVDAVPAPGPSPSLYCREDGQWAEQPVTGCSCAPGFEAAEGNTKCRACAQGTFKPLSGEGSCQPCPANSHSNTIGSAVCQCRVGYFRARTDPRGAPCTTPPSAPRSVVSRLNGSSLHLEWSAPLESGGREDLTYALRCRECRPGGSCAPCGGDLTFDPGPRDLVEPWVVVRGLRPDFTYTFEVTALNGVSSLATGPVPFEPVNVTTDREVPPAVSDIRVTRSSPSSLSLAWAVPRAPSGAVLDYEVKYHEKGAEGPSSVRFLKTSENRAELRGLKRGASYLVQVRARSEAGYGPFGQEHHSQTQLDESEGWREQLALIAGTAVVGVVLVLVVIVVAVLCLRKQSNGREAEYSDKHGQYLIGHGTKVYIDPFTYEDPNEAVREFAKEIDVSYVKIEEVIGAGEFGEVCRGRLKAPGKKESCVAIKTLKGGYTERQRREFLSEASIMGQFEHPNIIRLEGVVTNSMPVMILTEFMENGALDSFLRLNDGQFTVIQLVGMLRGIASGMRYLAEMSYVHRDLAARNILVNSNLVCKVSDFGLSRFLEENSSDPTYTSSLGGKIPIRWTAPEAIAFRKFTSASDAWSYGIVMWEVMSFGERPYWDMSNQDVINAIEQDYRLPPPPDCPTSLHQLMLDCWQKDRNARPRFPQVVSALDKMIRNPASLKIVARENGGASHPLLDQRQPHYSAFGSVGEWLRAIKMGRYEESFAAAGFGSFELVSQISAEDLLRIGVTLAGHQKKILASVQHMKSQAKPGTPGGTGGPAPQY
Description: Inhibition of EphB4 (unknown origin) transfected in CHO cells using [gamma-33P]ATP by radiometric assay

[4] = target: Ephrin type-A receptor 4 (Homo sapiens) (UniProt P54764); experiment: Inhibition of human Eph-A4 using [gamma-33P]ATP assessed as residual activity at 3 uM after 30 mins by radiometric assay
Ephrin type-A receptor 4 (Homo sapiens), sequence (P54764 whole entry): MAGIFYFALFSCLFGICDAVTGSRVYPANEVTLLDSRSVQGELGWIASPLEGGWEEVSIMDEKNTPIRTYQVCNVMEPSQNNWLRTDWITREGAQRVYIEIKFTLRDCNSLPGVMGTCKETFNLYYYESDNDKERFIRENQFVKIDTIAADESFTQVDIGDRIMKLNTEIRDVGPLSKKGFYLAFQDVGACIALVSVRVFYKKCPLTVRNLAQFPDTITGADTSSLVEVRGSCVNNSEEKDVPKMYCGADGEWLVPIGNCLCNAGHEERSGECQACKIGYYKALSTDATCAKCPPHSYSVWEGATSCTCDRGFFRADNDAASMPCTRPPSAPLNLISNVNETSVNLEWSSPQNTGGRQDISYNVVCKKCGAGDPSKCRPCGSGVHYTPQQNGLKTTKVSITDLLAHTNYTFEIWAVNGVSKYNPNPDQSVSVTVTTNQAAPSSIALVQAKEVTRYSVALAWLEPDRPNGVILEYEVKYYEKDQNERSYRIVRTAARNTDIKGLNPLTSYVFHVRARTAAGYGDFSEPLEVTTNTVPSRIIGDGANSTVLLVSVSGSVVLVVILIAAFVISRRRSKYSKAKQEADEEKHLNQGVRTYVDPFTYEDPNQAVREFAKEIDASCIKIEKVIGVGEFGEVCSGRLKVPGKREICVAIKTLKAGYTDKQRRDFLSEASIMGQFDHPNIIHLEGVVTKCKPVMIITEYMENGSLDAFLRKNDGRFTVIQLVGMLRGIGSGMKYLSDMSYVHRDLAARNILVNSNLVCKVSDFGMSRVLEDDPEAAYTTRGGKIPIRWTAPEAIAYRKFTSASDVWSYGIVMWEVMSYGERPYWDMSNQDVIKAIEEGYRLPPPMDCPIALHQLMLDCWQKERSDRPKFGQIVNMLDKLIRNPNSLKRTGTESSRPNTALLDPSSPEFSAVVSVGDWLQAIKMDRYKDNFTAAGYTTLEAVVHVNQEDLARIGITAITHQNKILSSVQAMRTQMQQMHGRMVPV

[5] = target: Tyrosine-protein kinase Lck (Homo sapiens, UniProt P06239); experiment: Inhibition of Lck (unknown origin) using [gamma-33P]ATP after 30 mins by radiometric assay
Tyrosine-protein kinase Lck, sequence (P06239 whole entry): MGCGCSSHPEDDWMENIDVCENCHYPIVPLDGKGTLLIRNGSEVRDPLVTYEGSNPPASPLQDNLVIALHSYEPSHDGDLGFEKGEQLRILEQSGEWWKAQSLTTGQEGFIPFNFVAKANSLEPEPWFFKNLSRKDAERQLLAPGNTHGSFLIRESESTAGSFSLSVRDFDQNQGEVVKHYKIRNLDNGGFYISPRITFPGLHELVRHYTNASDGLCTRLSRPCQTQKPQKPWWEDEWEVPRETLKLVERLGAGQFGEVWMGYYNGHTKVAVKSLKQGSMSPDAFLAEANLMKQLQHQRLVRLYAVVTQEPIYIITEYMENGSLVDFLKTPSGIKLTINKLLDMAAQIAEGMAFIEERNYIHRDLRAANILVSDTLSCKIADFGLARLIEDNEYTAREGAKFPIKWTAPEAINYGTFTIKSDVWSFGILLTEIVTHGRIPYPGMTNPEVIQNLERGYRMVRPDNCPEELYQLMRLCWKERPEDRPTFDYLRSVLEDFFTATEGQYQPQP

[6] = target: T2, Ephrin type-B receptor 3 (Homo sapiens) (UniProt P54753); experiment: Inhibition of human Eph-B3 using [gamma-33P]ATP assessed as residual activity at 3 uM after 30 mins by radiometric assay
T2 sequence (whole entry): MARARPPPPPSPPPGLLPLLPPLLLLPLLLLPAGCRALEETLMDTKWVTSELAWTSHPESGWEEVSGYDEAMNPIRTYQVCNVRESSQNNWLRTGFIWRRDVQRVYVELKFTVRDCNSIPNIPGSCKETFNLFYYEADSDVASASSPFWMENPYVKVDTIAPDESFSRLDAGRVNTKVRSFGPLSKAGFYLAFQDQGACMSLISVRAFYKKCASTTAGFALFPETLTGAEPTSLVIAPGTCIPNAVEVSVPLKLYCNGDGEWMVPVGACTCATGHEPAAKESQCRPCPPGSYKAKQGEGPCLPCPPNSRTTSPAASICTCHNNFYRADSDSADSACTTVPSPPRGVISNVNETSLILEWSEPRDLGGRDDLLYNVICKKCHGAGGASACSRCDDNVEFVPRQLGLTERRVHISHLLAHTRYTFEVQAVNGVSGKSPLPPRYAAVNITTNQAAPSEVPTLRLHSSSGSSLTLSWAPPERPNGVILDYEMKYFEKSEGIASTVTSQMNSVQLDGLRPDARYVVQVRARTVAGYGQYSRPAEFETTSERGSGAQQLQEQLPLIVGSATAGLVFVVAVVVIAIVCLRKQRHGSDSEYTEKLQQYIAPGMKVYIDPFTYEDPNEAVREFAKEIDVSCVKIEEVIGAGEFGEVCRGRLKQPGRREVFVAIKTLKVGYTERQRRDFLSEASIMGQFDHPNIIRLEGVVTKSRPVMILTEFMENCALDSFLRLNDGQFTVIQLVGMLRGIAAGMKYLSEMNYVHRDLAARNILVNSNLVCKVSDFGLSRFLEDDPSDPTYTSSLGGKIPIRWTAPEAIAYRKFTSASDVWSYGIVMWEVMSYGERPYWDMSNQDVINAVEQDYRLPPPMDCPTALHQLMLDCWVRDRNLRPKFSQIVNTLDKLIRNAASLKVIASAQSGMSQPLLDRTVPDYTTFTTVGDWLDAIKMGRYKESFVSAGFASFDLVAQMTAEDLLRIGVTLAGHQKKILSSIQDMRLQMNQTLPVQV

[7] = Apparent permeability from basolateral to apical side in human Caco2 cells after 2 hrs by LC-MS/MS analysis; type: ADME, cell-based; details: Caco-2
[8] = Cytotoxicity against human GXF251L cells after 4 days by propidium iodide staining; details: GXF 251L, 96 h
[9] = target: Tyrosine-protein kinase ABL1 (Homo sapiens, UniProt P00519)
Tyrosine-protein kinase ABL1, sequence (P00519 whole entry): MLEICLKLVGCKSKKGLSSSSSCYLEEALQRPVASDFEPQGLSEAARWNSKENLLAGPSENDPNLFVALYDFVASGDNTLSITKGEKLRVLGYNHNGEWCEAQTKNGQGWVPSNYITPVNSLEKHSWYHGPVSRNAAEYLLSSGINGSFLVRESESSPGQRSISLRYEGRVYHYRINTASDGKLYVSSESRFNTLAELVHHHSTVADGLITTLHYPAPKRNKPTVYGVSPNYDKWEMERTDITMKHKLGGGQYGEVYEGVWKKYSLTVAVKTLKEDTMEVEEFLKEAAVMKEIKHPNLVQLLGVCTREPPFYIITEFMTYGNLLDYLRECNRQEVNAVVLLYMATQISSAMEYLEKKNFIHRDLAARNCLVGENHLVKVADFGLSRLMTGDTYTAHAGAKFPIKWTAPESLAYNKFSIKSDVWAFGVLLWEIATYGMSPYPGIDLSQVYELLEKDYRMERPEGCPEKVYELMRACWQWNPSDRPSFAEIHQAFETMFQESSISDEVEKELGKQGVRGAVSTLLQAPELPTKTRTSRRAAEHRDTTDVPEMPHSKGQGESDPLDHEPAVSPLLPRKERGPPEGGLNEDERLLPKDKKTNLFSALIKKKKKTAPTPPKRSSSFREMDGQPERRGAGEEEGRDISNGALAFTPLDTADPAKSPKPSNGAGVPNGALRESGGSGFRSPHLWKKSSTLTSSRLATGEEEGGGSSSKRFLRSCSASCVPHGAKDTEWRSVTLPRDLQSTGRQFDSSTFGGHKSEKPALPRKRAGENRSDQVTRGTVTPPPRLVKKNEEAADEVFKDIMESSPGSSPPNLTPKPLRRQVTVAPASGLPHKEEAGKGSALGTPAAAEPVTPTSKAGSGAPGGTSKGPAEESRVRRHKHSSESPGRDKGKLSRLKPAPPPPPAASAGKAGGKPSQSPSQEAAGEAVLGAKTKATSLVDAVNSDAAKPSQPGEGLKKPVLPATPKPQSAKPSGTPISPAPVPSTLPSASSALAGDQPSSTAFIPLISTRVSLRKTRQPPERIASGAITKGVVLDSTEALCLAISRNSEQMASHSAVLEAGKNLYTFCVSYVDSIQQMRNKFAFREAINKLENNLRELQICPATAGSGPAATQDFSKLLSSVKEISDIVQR
Description: Inhibition of Abl (unknown origin) using [gamma-33P]ATP after 30 mins by radiometric assay

[10] = target: Proto-oncogene tyrosine-protein kinase Src (Homo sapiens, UniProt P12931)
Proto-oncogene tyrosine-protein kinase Src, sequence (P12931 2-536 limits assumed): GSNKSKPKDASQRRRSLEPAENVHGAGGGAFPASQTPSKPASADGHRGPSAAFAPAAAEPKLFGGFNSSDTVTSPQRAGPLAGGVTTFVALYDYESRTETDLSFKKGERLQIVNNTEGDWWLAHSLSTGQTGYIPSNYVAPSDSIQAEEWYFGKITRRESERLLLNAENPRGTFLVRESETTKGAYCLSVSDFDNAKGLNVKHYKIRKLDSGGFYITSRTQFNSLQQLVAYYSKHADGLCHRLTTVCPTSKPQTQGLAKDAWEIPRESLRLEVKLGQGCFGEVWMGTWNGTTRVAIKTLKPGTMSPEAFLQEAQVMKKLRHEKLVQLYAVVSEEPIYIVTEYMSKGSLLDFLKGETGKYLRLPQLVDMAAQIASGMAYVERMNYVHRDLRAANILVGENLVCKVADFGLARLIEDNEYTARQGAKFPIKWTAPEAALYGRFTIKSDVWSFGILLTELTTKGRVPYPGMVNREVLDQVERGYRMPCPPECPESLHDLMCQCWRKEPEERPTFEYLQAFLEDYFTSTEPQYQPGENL
Description: Inhibition of Src (unknown origin) using [gamma-33P]ATP after 30 mins by radiometric assay

[11] = Cytotoxicity against human PAXF 1657L cells after 4 days by propidium iodide staining; details: 96 h
Ephrin type-B receptor 4 [12] = target: T1, Ephrin type-B receptor 4; experiment: Inhibition of EphB4 (unknown origin) transfected in CHO cells using Z'-LYTE TYR-1 peptide as substrate after 2 hrs by FRET assay; type: cell-based
[13] = Permeability from basolateral to apical side in human Caco2 cells assessed as compound recovery after 2 hrs by LC-MS/MS analysis; type: ADME, cell-based; details: Caco-2, read-out: permeability
[14] = target: Receptor-interacting serine/threonine-protein kinase 2 (Homo sapiens) (UniProt O43353); experiment: Inhibition of human RIPK2 using [gamma-33P]ATP assessed as residual activity at 3 uM after 30 mins by radiometric assay
Receptor-interacting serine/threonine-protein kinase 2 (Homo sapiens), sequence (O43353 whole entry): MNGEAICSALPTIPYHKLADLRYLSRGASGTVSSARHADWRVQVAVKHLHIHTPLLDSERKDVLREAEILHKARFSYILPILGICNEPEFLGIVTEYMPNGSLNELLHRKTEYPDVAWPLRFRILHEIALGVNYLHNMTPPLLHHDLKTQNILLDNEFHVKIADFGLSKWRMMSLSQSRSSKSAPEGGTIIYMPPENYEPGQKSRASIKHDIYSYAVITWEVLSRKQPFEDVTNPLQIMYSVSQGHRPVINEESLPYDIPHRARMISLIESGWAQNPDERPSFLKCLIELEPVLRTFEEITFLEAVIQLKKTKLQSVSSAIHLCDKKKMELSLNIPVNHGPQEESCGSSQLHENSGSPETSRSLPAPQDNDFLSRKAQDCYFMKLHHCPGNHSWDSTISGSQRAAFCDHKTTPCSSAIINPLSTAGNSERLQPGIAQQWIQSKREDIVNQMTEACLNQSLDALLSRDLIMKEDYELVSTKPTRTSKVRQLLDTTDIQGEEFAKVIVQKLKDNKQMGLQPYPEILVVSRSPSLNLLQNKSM

[15] = Cytotoxicity against human LXFA 983L cells after 4 days by propidium iodide staining; details: 96 h
[16] = Cytotoxicity against human RXF 393NL cells after 4 days by propidium iodide staining; details: 96 h

CCCCn1c(-c2ccccc2C)cn2c3c(=O)[nH]c(=O)n(C)c3nc12
Papp A→B at 2 h [1]: 42.7 ×10⁻⁶ cm/s
IC50 (DU-145): 11.2 µM
Activity [2]: 6%
IC50 (Ephrin type-B receptor 4 [3]): 0.082 µM
Activity [4]: 5%
IC50 [5]: 0.493 µM
Activity [6]: 13%
Papp B→A at 2 h [7]: 28.1 ×10⁻⁶ cm/s
IC50 [8]: 14.6 µM
IC50 [9]: 0.578 µM
IC50 [10]: 0.071 µM
IC50 [11]: 8.1 µM
IC50 (Ephrin type-B receptor 4 [12]): 0.056 µM
recovery at 2 h [13]: 89%
Activity [14]: 12%
IC50 [15]: 5.45 µM
IC50 [16]: 7.6 µM
